According to PMC4607890, “The identification of novel Mycobacterium tuberculosis DHFR inhibitors and the investigation of their binding preferences by using molecular modelling” (Scientific Reports, 2015):

Assays:
mt-DHFR against h-DHFR = tested on: mt-DHFR against h-DHFR; set-up: method as in PMID 17451962; settings: TB5 Saccharomyces cerevisiae carrying DHFR genes; cited from earlier work
h-DHFR = molecular target: T1, h-DHFR (Homo sapiens, UniProt P00374); assay: in vitro enzyme assay, recombinant h-DHFR (NADPH oxidation at 340 nm); type: biochemical; settings: recombinant enzyme 20 nM, 40 μM NADPH, 40 μM dihydrofolate, pH 7.0, 25 °C
T1 construct: made in house
T1 sequence (P00374 1-187): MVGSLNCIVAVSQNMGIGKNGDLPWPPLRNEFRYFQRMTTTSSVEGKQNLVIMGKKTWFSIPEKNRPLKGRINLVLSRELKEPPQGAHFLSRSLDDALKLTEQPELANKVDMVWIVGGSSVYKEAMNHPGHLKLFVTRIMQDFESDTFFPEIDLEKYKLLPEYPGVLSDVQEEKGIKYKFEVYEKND

mt-DHFR = molecular target: T2, mt-DHFR (Mycobacterium tuberculosis, UniProt P9WNX1); assay: biochemical; type: biochemical; settings: for potency on mt-DHFR compared to h-DHFR: in vitro enzyme assays; for Ratio h-DHFR/mt-DHFR: ratio of IC50 values
T2 construct: made in house
T2 sequence (P9WNX1 whole entry): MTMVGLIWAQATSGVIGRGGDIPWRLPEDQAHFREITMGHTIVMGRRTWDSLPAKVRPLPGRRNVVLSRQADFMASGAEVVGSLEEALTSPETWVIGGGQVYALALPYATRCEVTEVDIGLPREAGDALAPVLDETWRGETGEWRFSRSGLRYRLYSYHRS

[1] = tested on: M. tuberculosis H37Ra (ATCC 25177); assay: Microbroth culture for bacteriostatic and bactericidal activity (OD readings, subculture on 7H10 agar); type: cell-based, Mycobacterium tuberculosis; settings: Mtb H37Ra; for growth inhibition on the test strain: overall
Method: The anti-mycobacterial activity of the compounds was tested by the measurement of OD readings and agar plate cultures. The test strain used was a stock culture of M. tuberculosis H37Ra (ATCC 25177) stored at −80 °C. Prior to testing, the stock culture was thawed and grown on Middlebrook 7H10 agar (Difco, USA) to check for viability and purity. To prepare the inoculum, a suspension of the culture in Middlebrook 7H9 broth (Difco, USA) was adjusted to a turbidity equivalent to McFarland standard no.1 and further diluted to a final concentration of approximately 10^5 cfu/ml. The compounds were dissolved in DMSO and diluted in 1% DMSO in 7H9 broth to obtain 100 μg/ml, 50 μg/ml, 10 μg/ml, 5 μg/ml 1 μg/ml and 0.1 μg/ml of compound. Each dilution was pipetted in 150 μl duplicates into a sterile 96-well microtitre plate. Three controls were set up with (a) 1% DMSO in 7H9 broth (b) 7H9 broth without DMSO and (c) p-amino salicylic acid (PAS) at 4 μg/ml (26.12 μM) in 7H9 broth with 1% DMSO. All wells were then inoculated with 10 μl of the mycobacterial culture at 10^5 cfu/ml, sealed with parafilm and incubated at 36 °C for 28 days. OD readings (at 630 nm wavelength) were taken daily using TECAN spectrophotometer with Magellan software version 7.1. In addition, on day 14 and day 28, 10 μl was removed from each well for subculturing on compound-free 7H10 agar plates which were incubated up to six weeks at 36 °C. The number, size and time of appearance of colonies in each subculture was recorded. A random sample of colonies was stained for acid-fastness to exclude non-mycobacterial contamination. […] Compounds showing less increase in OD readings than the no-compound controls but positive growth in the subcultures were deemed to have bacteriostatic activity.

[2] = tested on: human DHFR (h-DHFR) and mt-DHFR; settings: cited from earlier work
[3] = compound concentration 0.1 μg/ml
[4] = compound concentration 10 μg/ml
[5] = compound concentration 50 μg/ml
[6] = compound concentration 100 μg/ml

| SMILES | IC50 (h-DHFR) | IC50 (mt-DHFR) | Ratio h-DHFR/mt-DHFR (mt-DHFR) | colony counts after four weeks of exposure [1, 3] | colony counts after four weeks of exposure ([1]; compound concentration 1 μg/ml) | colony counts after four weeks of exposure ([1]; compound concentration 5 μg/ml) | colony counts after four weeks of exposure [1, 4] | colony counts after four weeks of exposure [1, 5] | colony counts after four weeks of exposure [1, 6] | also measured |
| --- | --- | --- | --- | --- | --- | --- | --- | --- | --- | --- |
| Nc1nc(N)c(-c2ccccc2)c(CC[C@@H](O)[C@@H](O)CO)n1 [El-7a] | – | – | – | – | – | – | – | – | – | selectivity for inhibition effects on mt-DHFR against h-DHFR (mt-DHFR against h-DHFR): notable selectivity |
| Nc1nc(N)c2cc(Sc3ccc(Cl)cc3)ccc2n1 [Compound 8] | 100 nM | 40 nM | 2.5 | +++ | +++ | +++ | +++ | +++ | – | potency on mt-DHFR compared to h-DHFR (mt-DHFR): more potent inhibitors of mt-DHFR compared to h-DHFR; activity compared with PAS (4 μg/ml) ([1]; 100 μg/ml): better activity than PAS; bactericidal activity ([1]; 100 μg/ml): bactericidal activity; growth in the 14-day subculture ([1]; after exposure to 50 μg/ml): did not grow; growth in the 28-day subculture ([1]; after exposure to 50 μg/ml): formed abundant colonies |
| Nc1ccc(C(=O)O)c(O)c1 [PAS, p-amino salicylic acid, reference compound] | – | – | – | – | – | – | – | – | – | delay in the appearance of colonies ([1]; PAS 4 μg/ml (26.12 μM)): two-week delay; growth of colonies on 7H10 agar ([1]; PAS 4 μg/ml (26.12 μM)): only scanty growth; reduction in growth ([1]; PAS 4 μg/ml (26.12 μM)): more than two-log reduction in growth; colony counts after four weeks of exposure ([1]; PAS control at 4 μg/ml (26.12 μM)): ++ (++, 11–100 colonies) |
| Nc1ccc(C(=O)Nc2ccc(OCc3nc(N)nc(N)c3-c3ccc(Cl)cc3)cc2)cc1 [Compound 4] | 2500 nM | 2600 nM | 0.96 | +++ | +++ | +++ | +++ | ++ (++, 11–100 colonies) | – | activity compared with PAS (4 μg/ml) ([1]; 100 μg/ml): better activity than PAS; bactericidal activity ([1]; 100 μg/ml): bactericidal activity |
| Nc1nc(N)c2cc(S(=O)(=O)c3ccc(Cl)cc3)ccc2n1 [Compound 7] | 440 nM | 63 nM | 6.98 | +++ | +++ | +++ | +++ | +++ | +++ | potency on mt-DHFR compared to h-DHFR (mt-DHFR): more potent inhibitors of mt-DHFR compared to h-DHFR; growth inhibition on the test strain [1]: least growth inhibition, affecting the colony size but not the colony count |
| Nc1nc(N)c(-c2ccc(Cl)c(Cl)c2)c(COc2ccc([N+](=O)[O-])cc2)n1 [Compound 1] | 130 nM | 130 nM | 1 | +++ | +++ | +++ | +++ | +++ | +++ | – |
| CN(Cc1cnc2nc(N)nc(N)c2n1)c1ccc(C(=O)N[C@@H](CCC(=O)O)C(=O)O)cc1 [MTX, Methotrexate] | – | – | – | – | – | – | – | – | – | selectivity of binding h-DHFR vs mt-DHFR [2]: without any significant selectivity |
| CC(=O)Nc1cccc(OCc2cccc(N3C(=N)NC(=N)NC3(C)C)c2)c1 [Compound 5] | – | – | – | +++ | +++ | +++ | +++ | +++ | +++ | – |
| Nc1nc(N)c2c(ccc3c2ccn3Cc2cccc([N+](=O)[O-])c2)n1 [Compound 6] | 33 nM | 6 nM | 5.5 | +++ | +++ | +++ | ++ (++, 11–100 colonies) | – | – | inhibition of mt-DHFR (mt-DHFR; in vitro enzyme assay): most potent inhibitor of mt-DHFR; potency on mt-DHFR compared to h-DHFR (mt-DHFR): more potent inhibitors of mt-DHFR compared to h-DHFR; activity compared with PAS (4 μg/ml, 26.12 μM) ([1]; 10 μg/ml (25.37 μM)): same activity as PAS; colony count ([1]; 10 μg/ml (25.37 μM)): notable reduction in colony count; bactericidal activity ([1]; 50 μg/ml): bactericidal; activity compared with PAS (4 μg/ml) ([1]; 100 μg/ml): better activity than PAS; bactericidal activity ([1]; 100 μg/ml): bactericidal activity; growth inhibition on the test strain [1]: strongest bactericidal activity |
| Nc1nc(N)c(-c2cccc(C(F)(F)F)c2)c(Cc2cccc(C(F)(F)F)c2)n1 [Compound 3] | 135 nM | 180 nM | 0.75 | +++ | +++ | +++ | +++ | ++ (++, 11–100 colonies) | + (+, 1–10 colonies) | – |
| Nc1nc(N)c(-c2ccc(Cl)c(Cl)c2)c(COc2cccc3ccccc23)n1 [Compound 2] | 70 nM | 110 nM | 0.64 | +++ | +++ | +++ | +++ | ++ (++, 11–100 colonies) | ++ (++, 11–100 colonies) | – |
